Like-named read-outs stand apart in the source and are kept apart here.
Tests used:
[1] = target: Beta Secretase enzyme (BACE) (Homo sapiens, UniProt P56817); assay: In vitro enzymatic BACE FRET (fluorescence resonance energy transfer) assay; type: biochemical;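 also: fluorescence read after 1 h with 50 nM quenched peptide substrate spanning the BACE cleavage site, in pH 4.2 acetate buffer containing 10% DMSO and nonionic detergent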
[2] = Microsomal stability assay, rat liver microsomes;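 also: rat liver microsomes (0.25 mg/mL) with about 1 µM compound plus 1 mM NADPH, pH 7.4, 37 °C for 30 min, parent left measured by LC-MS/MS against 0 min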
[3] = Microsomal stability assay, human liver microsomes;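 also: pooled human liver microsomes at 0.25 mg/mL with 1 µM compound and NADPH at 37 °C, pH 7.4, for 30 min, unchanged parent quantified by LC-MS/MS against the 0 min sample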
CYP3A4 (CYP3A) = CYP3A4 (CYP3A) (Homo sapiens, UniProt P08684); assay: in vitro; details: microsomes, pH 7.4;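 also: inhibition of CYP3A-mediated 1-hydroxymidazolam formation after 10 min incubation with NADPH, quantified by HPLC MS relative to metabolite produced without test compound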
CYP3A4 (CYP3A), sequence (P08684 2-503): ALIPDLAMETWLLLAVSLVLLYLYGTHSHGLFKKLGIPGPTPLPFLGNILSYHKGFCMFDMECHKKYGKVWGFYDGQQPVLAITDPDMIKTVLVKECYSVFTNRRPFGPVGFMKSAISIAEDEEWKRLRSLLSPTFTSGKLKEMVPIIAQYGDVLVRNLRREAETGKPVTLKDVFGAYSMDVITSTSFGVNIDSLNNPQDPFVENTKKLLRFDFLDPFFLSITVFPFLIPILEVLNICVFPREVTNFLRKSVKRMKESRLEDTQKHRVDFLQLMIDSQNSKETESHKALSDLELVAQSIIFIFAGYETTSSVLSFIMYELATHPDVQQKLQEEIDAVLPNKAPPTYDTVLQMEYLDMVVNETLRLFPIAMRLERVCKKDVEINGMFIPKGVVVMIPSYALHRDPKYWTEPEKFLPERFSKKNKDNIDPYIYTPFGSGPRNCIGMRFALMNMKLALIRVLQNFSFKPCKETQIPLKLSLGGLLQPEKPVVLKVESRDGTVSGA

[4] = test system: Aβ40 in conditioned medium of cells stably expressing Amyloid Precursor Protein (APP); assay: In vitro BACE cell-based assay (Aβ40 in conditioned medium, sandwich ELISA); details: Homo sapiens;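 also: compounds added as a dilution series, secreted peptide quantified by europium time-resolved fluorescence readout, potency fitted from percent of control versus compound concentration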
CYP2D6 = CYP2D6 (Homo sapiens, UniProt P10635); assay: CYP2D6 inhibition assay (bufuralol, pooled human liver microsomes)
CYP2D6, sequence (P10635 whole entry): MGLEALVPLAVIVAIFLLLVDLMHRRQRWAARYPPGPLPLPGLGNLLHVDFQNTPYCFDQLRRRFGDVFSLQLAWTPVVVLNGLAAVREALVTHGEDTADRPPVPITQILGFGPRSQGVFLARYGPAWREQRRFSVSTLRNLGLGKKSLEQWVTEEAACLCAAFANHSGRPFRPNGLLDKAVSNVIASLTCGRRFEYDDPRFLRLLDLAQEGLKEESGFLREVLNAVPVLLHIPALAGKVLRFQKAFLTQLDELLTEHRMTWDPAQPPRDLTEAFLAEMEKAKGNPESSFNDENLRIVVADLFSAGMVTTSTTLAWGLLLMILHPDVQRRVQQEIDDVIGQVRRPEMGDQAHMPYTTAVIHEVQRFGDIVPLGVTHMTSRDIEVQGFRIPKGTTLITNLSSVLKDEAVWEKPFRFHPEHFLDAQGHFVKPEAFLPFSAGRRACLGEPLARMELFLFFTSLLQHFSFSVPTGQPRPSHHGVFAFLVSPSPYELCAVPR

[5] = BACE enzyme assay, IC50's in uM, read-out: BACE1 FRET assay
[6] = HEK293, cell-based assay, HEK cells, IC50's in uM, read-out: HEK cell assay
[7] = 2D6 IC50, CYP enzyme inhibition
[8] = HEK293, HEK cell-based assay, IC50's in uM, read-out: HEK cell assay
[9] = 2D6 IC50 (uM), CYP enzyme inhibition
[10] = BACE enzyme assay, read-out: BACE1 FRET assay
[11] = HEK293, HEK cells, read-out: HEK cell assay
[12] = BACE enzyme assay IC50, read-out: BACE1 FRET assay
[13] = HEK293, HEK cell-based assay IC50, read-out: HEK cell assay
[14] = 2D6 IC50 (uM), CYP2D6 inhibition

Beta Secretase enzyme (BACE), sequence (P56817 46-501): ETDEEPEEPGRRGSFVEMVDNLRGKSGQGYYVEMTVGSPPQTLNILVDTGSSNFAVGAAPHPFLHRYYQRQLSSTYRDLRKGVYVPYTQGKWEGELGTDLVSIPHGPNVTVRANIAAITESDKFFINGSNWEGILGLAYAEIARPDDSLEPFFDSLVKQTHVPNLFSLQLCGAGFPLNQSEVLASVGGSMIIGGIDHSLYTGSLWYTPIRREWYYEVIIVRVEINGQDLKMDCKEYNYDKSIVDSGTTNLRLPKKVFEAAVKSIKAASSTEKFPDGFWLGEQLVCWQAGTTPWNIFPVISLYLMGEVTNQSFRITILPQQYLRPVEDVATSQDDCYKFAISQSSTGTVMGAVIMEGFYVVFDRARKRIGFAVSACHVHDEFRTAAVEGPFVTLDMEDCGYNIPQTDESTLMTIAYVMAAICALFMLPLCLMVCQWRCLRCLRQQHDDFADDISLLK

SMILES	IC50 [1, 5] [µM]	RLM ([2]; rat liver microsomal data) [µL/min/mg]	HLM ([3]; human liver microsomal data) [µL/min/mg]	IC50 (CYP3A4 (CYP3A)) [µM]	IC50 (CYP2D6; [9]) [µM]	RLM ([2]; rat liver microsomes) [µL/min/mg]	HLM ([3]; human liver microsomes) [µL/min/mg]	also measured
COCC(=O)N[C@@H](Cc1cccc(-c2nccs2)c1)[C@H](O)CN[C@H]1CC2(CCC2)Oc2ncc([C@@H]3CC3(C)C)cc21 [compound 857, N-((1S,2R)-3-(((4′S)-6′-((1R)-2,2-dimethylcyclopropyl)-3′,4′-dihydrospiro[cyclobutane-1,2′-pyrano[2,3-b]pyridin]-4′-yl)amino)-2-hydroxy-1-(3-(1,3-thiazol-2-yl)benzyl)propyl)-2-methoxyacetamide]	0.004	46	51	0.1	–	–	–	IC50 [4, 6]: 0.008 µM; IC50 (CYP2D6; [7]): 0.35 µM
CCCc1cnc2c(c1)[C@@H](NC[C@@H](O)[C@H](Cc1cc(F)cc(-c3nccs3)c1)NC(=O)COC)CC1(CCC1)O2 [compound 865]	0.086	74	125	0.3	–	–	–	IC50 [4, 6]: 0.879 µM; IC50 (CYP2D6; [7]): 0.7 µM
C#Cc1cccc(C[C@H](NC(=O)COC)[C@H](O)CN[C@H]2C[C@@]3(CCOC3)Oc3ncc(CC(C)(C)C)cc32)c1 [compound 825, N-((1S,2R)-3-(((3S,4′S)-6′-(2,2-dimethylpropyl)-3′,4,4′,5-tetrahydrospiro[furan-3,2′-pyrano[2,3-b]pyridin]-4′-yl)amino)-1-(3-ethynylbenzyl)-2-hydroxypropyl)-2-methoxyacetamide]	0.005	85	17	0.1	7.3	–	–	IC50 [4, 8]: 0.009 µM
COCC(=O)N[C@@H](Cc1ccc(F)cc1)[C@H](O)CN[C@H]1CC2(CCC2)Oc2ncc(C(F)(F)C(C)(C)C)cc21 [compound 569]	–	423	238	0.7	≥ 27	–	–	IC50 [1, 10]: 0.165 µM; IC50 [4, 11]: 0.992 µM
COCC(=O)N[C@@H](Cc1cc(F)cc(F)c1)[C@H](O)CN[C@H]1CC2(CCC2)Oc2c1cc(CC(C)(C)C)nc2Nc1ccncc1 [compound 571]	–	193	142	0.1	2.3	–	–	IC50 [1, 10]: 0.053 µM; IC50 [4, 11]: 0.003 µM
COCC(=O)N[C@@H](Cc1cc(F)cc(-c2nccs2)c1)[C@H](O)CN[C@H]1CC2(CCC2)Oc2ncc(CC(C)C)cc21 [Example 695, N-((1S,2R)-1-(3-fluoro-5-(1,3-thiazol-2-yl)benzyl)-2-hydroxy-3-(((4′S)-6′-(2-methylpropyl)-3′,4′-dihydrospiro[cyclobutane-1,2′-pyrano[2,3-b]pyridin]-4′-yl)amino)propyl)-2-methoxyacetamide]	–	–	–	0.1	–	64	77	IC50 [1, 12]: 0.004 µM; IC50 [4, 13]: 0.011 µM; IC50 (CYP2D6; [14]): 0.5 µM
CO[C@H](C)C(=O)N[C@@H](Cc1cccc(F)c1)[C@H](O)CN[C@H]1CC2(CCC2)Oc2c(Br)cc(CC(C)C)cc21 [compound 515]	–	399	775	1.3	9.4	–	–	IC50 [1, 10]: 0.003 µM; IC50 [4, 11]: 0.125 µM
CO[C@H](C)C(=O)N[C@@H](Cc1ccncc1)[C@H](O)CN[C@H]1CC2(CCC2)Oc2ncc(C(F)(F)F)cc21 [compound 653]	–	–	–	0.6	–	114	178	IC50 ([1]; read-out: BACE1 FRET assay (IC50)): 6.74 µM; IC50 ([4]; HEK293, HEK cells, read-out: HEK cell assay (IC50)): > 10 µM; IC50 (CYP2D6; 2D6 IC50, CYP2D6 inhibition): 5.8 µM
CC(C)(C)Cc1cnc2c(c1)[C@@H](NC[C@@H](O)[C@H](Cc1ccc(F)cc1)NC(=O)[C@@H]1CN(Cc3ccccc3)CCO1)CC1(CCC1)O2 [compound 711]	–	–	–	0.3	–	399	706	IC50 [1, 12]: 0.04 µM; IC50 [4, 13]: 0.124 µM; IC50 (CYP2D6; [14]): 8.2 µM
CC(C)(C)Cc1cnc2c(c1)[C@@H](NC[C@@H](O)[C@H](Cc1ccc(F)cc1)NC(=O)[C@@H]1CN(Cc3nccs3)CCO1)CC1(CCC1)O2 [compound 769]	0.01	333	706	0.4	5.2	–	–	IC50 [4, 8]: 0.013 µM
CO[C@H](C)C(=O)N[C@@H](Cc1ccc(-c2nccs2)cc1)[C@H](O)CN[C@H]1CC2(CCC2)Oc2ncc(CC(C)(C)C)cc21 [compound 735]	–	–	–	≤ 0.03	–	80	78	IC50 [1, 12]: 0.049 µM; IC50 [4, 13]: 0.06 µM; IC50 (CYP2D6; [14]): 1 µM
CC(=O)N[C@@H](Cc1ccc(-c2cscn2)cc1)[C@H](O)CN[C@H]1CC2(CCC2)Oc2ncc(CC(C)(C)C)cc21 [compound 693]	–	–	–	0.2	–	63	110	IC50 [1, 12]: 0.043 µM; IC50 [4, 13]: 0.06 µM; IC50 (CYP2D6; [14]): 2.9 µM
C[C@@H](O)C(=O)N[C@@H](Cc1ccc(F)cc1)[C@H](O)CN[C@H]1CC2(CCC2)Oc2ncc(CC(C)(C)C)cc21 [compound 442]	–	150.333	117.333	0.75	–	–	–	IC50 ([1]; Table 2, read-out: BACE1 FRET assay): 0.013 µM; IC50 ([4]; HEK293, Table 2, HEK cells, read-out: HEK cell assay): 0.016 µM; IC50 (CYP2D6; [7]): 6.75 µM
COCC(=O)N[C@@H](Cc1ccc(F)c(-c2nccs2)c1)[C@H](O)CN[C@H]1CC2(CCC2)Oc2ncc(CC(C)C)cc21 [compound 727]	–	–	–	≤ 0.03	–	74	45	IC50 [1, 12]: 0.011 µM; IC50 [4, 13]: 0.023 µM; IC50 (CYP2D6; [14]): 0.5 µM
CCOCC(=O)N[C@@H](Cc1ccc(F)c(-c2nccs2)c1)[C@H](O)CN[C@H]1CC2(CCC2)Oc2ncc(CC(C)(C)C)cc21 [compound 904]	0.004	47	38	0.1	–	–	–	IC50 [4, 6]: 0.062 µM; IC50 (CYP2D6; [7]): 0.5 µM
CO[C@H](C)C(=O)N[C@@H](Cc1cccc(F)c1)[C@H](O)CN[C@H]1CC2(CCC2)Oc2c(-c3ccncc3)cc(CC(C)(C)O)cc21 [compound 567]	–	120	67	0.1	2.2	–	–	IC50 [1, 10]: 0.039 µM; IC50 [4, 11]: 0.009 µM
COCC(=O)N[C@@H](Cc1cccc(-c2nccs2)c1)[C@H](O)CN[C@H]1CC2(CCC2)Oc2ncc(CC(C)(C)F)cc21 [compound 813, N-((1S,2R)-3-(((4′S)-6′-(2-fluoro-2-methylpropyl)-3′,4′-dihydrospiro[cyclobutane-1,2′-pyrano[2,3-b]pyridin]-4′-yl)amino)-2-hydroxy-1-(3-(1,3-thiazol-2-yl)benzyl)propyl)-2-methoxyacetamide]	0.006	27	32	0.5	1.1	–	–	IC50 [4, 8]: 0.014 µM
COCC(=O)N[C@@H](Cc1cccc(F)c1)[C@H](O)CN[C@H]1CC2(CCC2)Oc2c(-c3cscn3)cc(CC(C)C)cc21 [compound 526]	–	503	351	0.6	7.3	–	–	IC50 [1, 10]: 0.006 µM; IC50 [4, 11]: 0.053 µM
CO[C@H](C)C(=O)N[C@@H](Cc1cc(F)cc(F)c1)[C@H](O)CN[C@H]1CC2(CCC2)Oc2c1cc(CC(C)C)nc2Cl [compound 686]	–	–	–	0.2	–	399	921	IC50 [1, 12]: 0.003 µM; IC50 [4, 13]: 0.052 µM; IC50 (CYP2D6; [14]): 6.1 µM
CO[C@@H](C)C(=O)N[C@@H](Cc1ccc2c(c1)OCO2)[C@H](O)CN[C@H]1CC2(CCC2)Oc2ccc(C[C@@H](C)F)cc21 [compound 499]	–	213	156	0.3	0.7	–	–	IC50 [1, 10]: 1.36 µM; IC50 [4, 11]: 0.473 µM
CO[C@H](C)C(=O)N[C@@H](Cc1ccc2c(c1)OCO2)[C@H](O)CN[C@H]1CC(C)(C)Oc2ncc(CC(C)(C)C)cc21 [compound 674]	–	–	–	0.1	–	128	26	IC50 [1, 12]: 0.033 µM; IC50 [4, 13]: 0.037 µM; IC50 (CYP2D6; [14]): 10.5 µM
COCC(=O)N[C@@H](Cc1ccc(-c2nccs2)c(F)c1)[C@H](O)CN[C@H]1CC2(CCC2)Oc2ncc(CC(C)C)cc21 [compound 787]	0.11	79	58	0.2	0.8	–	–	IC50 [4, 8]: 0.451 µM
CO[C@H](C)C(=O)N[C@@H](Cc1ccccc1)[C@H](O)CN[C@H]1CC2(CCC2)Oc2c(Br)cc(CC(C)C)cc21 [compound 545]	–	775	775	1.1	8.2	–	–	IC50 [1, 10]: 0.007 µM; IC50 [4, 11]: 1.49 µM
CO[C@H](C)C(=O)N[C@@H](Cc1ccc(F)c(-c2nccs2)c1)[C@H](O)CN[C@H]1CC2(CCC2)Oc2ncc(CC(C)C)cc21 [compound 768, (2R)-N-((1S,2R)-1-(4-fluoro-3-(1,3-thiazol-2-yl)benzyl)-2-hydroxy-3-(((4′S)-6′-(2-methylpropyl)-3′,4′-dihydrospiro[cyclobutane-1,2′-pyrano[2,3-b]pyridin]-4′-yl)amino)propyl)-2-methoxypropanamide]	0.022	70	39	0.1	0.4	–	–	IC50 [4, 8]: 0.105 µM

Source: patent publication US8163909B2, “Substituted hydroxyethyl amine compounds as beta-secretase modulators and methods of use” (Amgen Inc., priority 2007, dated 2012)
